Experiment [1] relates to Lipid bilayer. In words: Vesicular anionophoric activity in large unilamellar vesicle membrane derived from egg-yolk L-alpha-phosphatidylcholine assessed as induction of relative efflux of chloride ions measured up to 300 seconds by using chloride-selective electrode.
A further experiment concerns HCT-8. Kind of experiment: Antiproliferative activity against human HCT-8 cells by MTT assay. It counts as functional, cell-based. A general note: Tetrazolium dyes change colour on reduction, which living cells bring about.
Experiment [2] concerns HepG2. In words: Antiproliferative activity against human HepG2 cells by MTT assay. It counts as functional, cell-based.
Experiment [3] has as its system Lipid bilayer. In words: Vesicular anionophoric activity in large unilamellar vesicle membrane derived from egg-yolk L-alpha-phosphatidylcholine assessed as induction of relative efflux of chloride ions in presence of rubidium (Rb+) measured up to 300 seconds by using chloride-selective electrode. The note with it: time <= 300.0 sec.
Another experiment relates to HT-29. Kind of experiment: Antiproliferative activity against human HT-29 cells by MTT assay. Format: functional, cell-based.
The next experiment relates to A2780. Kind of experiment: Antiproliferative activity against human A2780 cells by MTT assay. It counts as functional, cell-based.
The subject of experiment [4] is Lipid bilayer. Kind of experiment: Vesicular anionophoric activity in large unilamellar vesicle membrane derived from egg-yolk L-alpha-phosphatidylcholine assessed as induction of relative efflux of chloride ions in presence of sodium (Na+) measured up to 300 seconds by using chloride-selective electrode. As to conditions: time <= 300.0 sec.
The next experiment deals with MCF7. Kind of experiment: Antiproliferative activity against human MCF7 cells by MTT assay. Format: functional, cell-based.
Experiment [5] deals with Lipid bilayer. Kind of experiment: Vesicular anionophoric activity in large unilamellar vesicle membrane derived from egg-yolk L-alpha-phosphatidylcholine assessed as induction of relative efflux of chloride ions in presence of lithium (Li+) measured up to 300 seconds by using chloride-selective electrode. The note with it: time <= 300.0 sec.
Experiment [6] deals with Lipid bilayer. In words: Vesicular anionophoric activity in large unilamellar vesicle membrane derived from egg-yolk L-alpha-phosphatidylcholine assessed as induction of relative efflux of chloride ions in presence of potassium (K+) measured up to 300 seconds by using chloride-selective electrode. As to conditions: time <= 300.0 sec.
Experiment [7] concerns Lipid bilayer. Kind of experiment: Vesicular anionophoric activity in large unilamellar vesicle membrane derived from egg-yolk L-alpha-phosphatidylcholine assessed as induction of relative efflux of chloride ions in presence of cesium (Cs+) measured up to 300 seconds by using chloride-selective electrode. The note with it: time <= 300.0 sec.
Experiment [8] concerns Lipid bilayer. Kind of experiment: Vesicular anionophoric activity in Bulky nitrobenzene membrane assessed as induction of relative efflux of chloride ions measured up to 100 hrs by using chloride-selective electrode.
In experiment [9] the test system is HepG2. In words: Suppression of Golgi structural and functional protein expression in human HepG2 cells assessed as decrease in GRASP55 protein expression at 5 to 20 uM measured after 48 hrs incubation by Western blot analysis. Format: cell-based. The note with it: dose 5-20 µM. For orientation: In western blotting, separated proteins are transferred to a membrane and probed.

Experiment [10] deals with HepG2. In words: Disruption of homeostasis of chloride anions in golgi apparatus of human HepG2 cells assessed as increase in fluorescence intensity of 6-methoxy-1-(2-oxo-2-((4-sulfamoylphenyl)amino)ethyl)quinolin-1-ium Bromide at 50 uM measured after 12 hts by CLSM imaging analysis. It counts as functional, cell-based.
In experiment [11] the test system is HepG2. Kind of experiment: Suppression of Golgi structural and functional protein expression in human HepG2 cells assessed as decrease in GM130 protein expression at 5 to 20 uM measured after 48 hrs incubation by Western blot analysis. Format: cell-based. The note with it: dose 5-20 µM.
Experiment [12] relates to HepG2. Kind of experiment: Induction of apoptosis in human HepG2 cells assessed as early apoptotic cells at 5 uM measured after 24 hrs incubation by Propidium iodide/Annexin V-FITC analysis (reference value: 2.90%). It counts as functional.
The subject of experiment [13] is HepG2. Kind of experiment: Induction of apoptosis in human HepG2 cells assessed as viable cells at 5 uM measured after 24 hrs incubation by Propidium iodide/Annexin V-FITC analysis (reference value: 90.2%). The note with it: read-out: Activity. It counts as functional.
Experiment [14] deals with HepG2. In words: Induction of apoptosis in human HepG2 cells assessed as necrotic cells at 5 uM measured after 24 hrs incubation by Propidium iodide/Annexin V-FITC analysis (reference value: 1.14%). It counts as functional.
Experiment [15] has as its system HepG2. In words: Induction of apoptosis in human HepG2 cells assessed as late apoptotic cells at 5 uM measured after 24 hrs incubation by Propidium iodide/Annexin V-FITC analysis (reference value: 5.71%). Format: functional.
Experiment [16] concerns HepG2. Kind of experiment: Induction of chloride ion influx in human HepG2 cells assessed as effect on lysosomal chloride anions at […] measured after 12 hrs incubation by chloride-sensitive dye MQAE-MP based CLSM imaging analysis. Format: functional, cell-based.

Activity calls are given as the source filed them. No cut-off for these calls is given here.

Consider `Cc1ccc(Nc2c(NCCCCCC(=O)Nc3ccc(S(N)(=O)=O)cc3)c(=O)c2=O)cc1`, for which the EC50 in the experiment with Lipid bilayer [1] is given as more than 10 mol%. The IC50 is 32.2 µM in the experiment with HCT-8; 36.7 µM in the experiment with HepG2 [2]; 47.4 µM with HT-29; more than 50 µM in the experiment with A2780; 33 µM in the experiment with MCF7. Moreover, the result with Lipid bilayer [3], in the experiment on Lipid bilayer [4], in the experiment on Lipid bilayer [5], in the experiment on Lipid bilayer [6] and in the experiment with Lipid bilayer [7] was Active. For the same compound, the Activity entry in the experiment with Lipid bilayer [8] was “Active; Compound Exhibit Anion Transport Activity Most Probably Through Carrier Mechanism”.
On to `N#Cc1ccc(Nc2c(NCCCCCC(=O)Nc3ccc(S(N)(=O)=O)cc3)c(=O)c2=O)cc1`, for which the EC50 in the experiment on Lipid bilayer [1] is on record as 4.57 mol%. For the same compound, the IC50 in the experiment with HCT-8 is 31.8 µM; in the experiment with HepG2 [2], 38.1 µM; in the experiment on HT-29, 45.1 µM; with A2780, more than 50 µM; with MCF7, 37.1 µM. In addition, the result in the experiment with Lipid bilayer [3], in the experiment on Lipid bilayer [4], with Lipid bilayer [5], with Lipid bilayer [6] and in the experiment with Lipid bilayer [7] was Active. In addition, the Activity entry in the experiment on Lipid bilayer [8] is “Active; Compound Exhibit Anion Transport Activity Most Probably Through Carrier Mechanism”.
Turning to `NS(=O)(=O)c1ccc(NC(=O)CCCCCNc2c(Nc3ccc(C(F)(F)F)cc3)c(=O)c2=O)cc1`, in the experiment with Lipid bilayer [1], the EC50 turned out to be 2.93 mol%. For the same compound, the IC50 is 19.2 µM in the experiment with HCT-8; 27.1 µM in the experiment on HepG2 [2]; 24.7 µM with HT-29; 21.1 µM in the experiment on A2780; more than 50 µM in the experiment with MCF7. Further, the result in the experiment with Lipid bilayer [3], in the experiment on Lipid bilayer [4], in the experiment with Lipid bilayer [5], in the experiment on Lipid bilayer [6] and in the experiment on Lipid bilayer [7] was Active. The Activity result in the experiment with Lipid bilayer [8] is listed as “Active; Compound Exhibit Anion Transport Activity Most Probably Through Carrier Mechanism”.
Regarding `COc1ccc(Nc2c(NCCCCCC(=O)Nc3ccc(S(N)(=O)=O)cc3)c(=O)c2=O)cc1`, the EC50 in the experiment on Lipid bilayer [1] is more than 10 mol%. For the same compound, the IC50 in the experiment with HCT-8 was 44.7 µM; with HepG2 [2], 41.9 µM; in the experiment with HT-29, 49.5 µM; in the experiment on A2780, more than 50 µM; in the experiment on MCF7 it was 39.7 µM. The result in the experiment with Lipid bilayer [3], in the experiment with HepG2 [9], in the experiment with Lipid bilayer [4], in the experiment with Lipid bilayer [5], in the experiment with Lipid bilayer [6] and in the experiment on Lipid bilayer [7] was Active. Also, the result in the experiment on HepG2 [10] and with HepG2 [11] was inactive. Moreover, the Activity entry with Lipid bilayer [8] is “Active; Compound Exhibit Anion Transport Activity Most Probably Through Carrier Mechanism”.
`NS(=O)(=O)c1ccc(NC(=O)CCCCCNc2c(Nc3cc([N+](=O)[O-])cc([N+](=O)[O-])c3)c(=O)c2=O)cc1`: the EC50 with Lipid bilayer [1] is 3.08 mol%. For the same compound, the IC50 in the experiment with HCT-8, in the experiment with HepG2 [2], with HT-29, with A2780 and in the experiment with MCF7 was more than 50 µM in each case. The result in the experiment on Lipid bilayer [3], in the experiment with Lipid bilayer [4], in the experiment on Lipid bilayer [5], in the experiment on Lipid bilayer [6] and in the experiment with Lipid bilayer [7] was Active. The Activity result in the experiment on Lipid bilayer [8] was “Active; Compound Exhibit Anion Transport Activity Most Probably Through Carrier Mechanism”.
As to `NS(=O)(=O)c1ccc(NC(=O)CCCCCNc2c(Nc3cc(Cl)cc(Cl)c3)c(=O)c2=O)cc1`, the EC50 in the experiment on Lipid bilayer [1] came out at 3.44 mol%. Also, the IC50 is 39.1 µM with HCT-8; 20.6 µM in the experiment with HepG2 [2]; 40.9 µM in the experiment with HT-29; more than 50 µM in the experiment with A2780; more than 50 µM with MCF7. The result in the experiment on Lipid bilayer [3], in the experiment on Lipid bilayer [4], in the experiment on Lipid bilayer [5], with Lipid bilayer [6] and in the experiment with Lipid bilayer [7] was Active. Also, the Activity result in the experiment with Lipid bilayer [8] is listed as “Active; Compound Exhibit Anion Transport Activity Most Probably Through Carrier Mechanism”.
As to `NS(=O)(=O)c1ccc(NC(=O)CCCCCNc2c(Nc3ccc(F)cc3)c(=O)c2=O)cc1`, the EC50 in the experiment with Lipid bilayer [1] is given as 3.76 mol%. Besides, the IC50 with HCT-8 was 36.5 µM; in the experiment with HepG2 [2], 33.6 µM; with HT-29, 42.1 µM; in the experiment on A2780, more than 50 µM; with MCF7, 30.1 µM. Further, the outcome in the experiment with Lipid bilayer [3], in the experiment with Lipid bilayer [4], with Lipid bilayer [5], with Lipid bilayer [6] and in the experiment with Lipid bilayer [7] was Active. For the same compound, the Activity entry in the experiment with Lipid bilayer [8] is on record as “Active; Compound Exhibit Anion Transport Activity Most Probably Through Carrier Mechanism”.
For `COc1cccc2c1C(=O)c1c(O)c3c(c(O)c1C2=O)C[C@@](O)(C(=O)CO)C[C@@H]3O[C@H]1C[C@H](N)[C@H](O)[C@H](C)O1.Cl` [DOXORUBICIN HYDROCHLORIDE], the IC50 was 1.21 µM with HCT-8; 0.57 µM with HepG2 [2]; 1.22 µM in the experiment with HT-29; 1.03 µM with A2780; 0.32 µM in the experiment with MCF7. Besides, the Activity is 16.8% with HepG2 [12], 3.96% in the experiment with HepG2 [14] and 20.7% with HepG2 [15]. Further, the viability at 5 µM in the experiment on HepG2 [13] amounted to 58.5%.
In the case of `NS(=O)(=O)c1ccc(NC(=O)CCCCCNc2c(Nc3ccc([N+](=O)[O-])cc3)c(=O)c2=O)cc1`, the EC50 in the experiment on Lipid bilayer [1] was determined as 2.86 mol%. The IC50 with HCT-8, in the experiment with HepG2 [2], in the experiment on HT-29, in the experiment on A2780 and in the experiment with MCF7 was more than 50 µM each time. The result in the experiment with Lipid bilayer [3], with Lipid bilayer [4], in the experiment with Lipid bilayer [5], in the experiment with Lipid bilayer [6] and in the experiment with Lipid bilayer [7] was Active. Also, in the experiment with Lipid bilayer [8], the Activity entry is “Active; Compound Exhibit Anion Transport Activity Most Probably Through Carrier Mechanism”.
Turning to `NS(=O)(=O)c1ccc(NC(=O)CCCCCNc2c(Nc3ccc(Cl)cc3)c(=O)c2=O)cc1`, the EC50 with Lipid bilayer [1] was 5.78 mol%. Moreover, the IC50 is 25.6 µM in the experiment with HCT-8; 31.9 µM in the experiment with HepG2 [2]; 33.8 µM in the experiment with HT-29; more than 50 µM in the experiment on A2780; 23.6 µM in the experiment with MCF7. Besides, the result in the experiment on Lipid bilayer [3], in the experiment on Lipid bilayer [4], with Lipid bilayer [5], in the experiment with Lipid bilayer [6] and in the experiment on Lipid bilayer [7] was Active. Also, in the experiment on Lipid bilayer [8], the Activity entry was “Active; Compound Exhibit Anion Transport Activity Most Probably Through Carrier Mechanism”.
With `NS(=O)(=O)c1ccc(NC(=O)CCCCCNc2c(Nc3ccc(Br)cc3)c(=O)c2=O)cc1`, the EC50 with Lipid bilayer [1] was found to be 3.06 mol%. The IC50 in the experiment on HCT-8 came to 41 µM; in the experiment on HepG2 [2], 35.9 µM; in the experiment on HT-29 it was 18.7 µM; in the experiment on A2780, 48.8 µM; with MCF7 it was 15.5 µM. For the same compound, the result in the experiment on Lipid bilayer [3], in the experiment on Lipid bilayer [4], in the experiment on Lipid bilayer [5], in the experiment on Lipid bilayer [6] and with Lipid bilayer [7] was Active. In addition, the Activity result with Lipid bilayer [8] is given as “Active; Compound Exhibit Anion Transport Activity Most Probably Through Carrier Mechanism”.
With `COc1ccc2c(ccc[n+]2CC(=O)Nc2ccc(S(N)(=O)=O)cc2)c1`, the result in the experiment with HepG2 [16] was Active.

For orientation: IC50 means the concentration that gives 50% inhibition. Read a high IC50 as weaker potency.

The record behind these values is ChEMBL document CHEMBL6177955, “Design, synthesis and biological evaluation of Golgi-targeting anion transporters as inducers of Golgiphagy and apoptosis in cancer cells” (Eur J Med Chem, 2025).
